Consider nine molecules from patent US20240010684A1, “MASP INHIBITORY COMPOUNDS AND USES THEREOF” (BAYER AKTIENGESELLSCHAFT, priority 2020, published 2024).

Molecules are shown by their SMILES. *1 amine or outer side, *2 acyl side, *3 side chain or, on linkers, in order; H or OH if unused. Where a SMILES comes first, the peptide text is derived from it. Bridges are numbered along the chain shown (N, C = ends). [ ]: non-standard residue; d: D form. ξ: configuration not given here. Oic = O=C(O)[C@@H]1C[C@@H]2CCCC[C@@H]2N1; X5 = NCCC[C@H](N[*:1])C(=O)NC(=O)[*:2]; Arg(Me) = CNC(=N)NCCC[C@H](N)C(=O)O; Trx = NC[C@H]1CC[C@H](C(=O)O)CC1; tBuAla = CC(C)(C)C[C@H](N)C(=O)O; Pen = CC(C)(S)[C@H](N)C(=O)O; NMeC = CN[C@@H](CS)C(=O)O; Orn = NCCC[C@H](N)C(=O)O; Dap = NC[C@H](N)C(=O)O; ξD = NC(CC(=O)O)C(=O)O

One assay deals with human MASP2 (Homo sapiens (Human), UniProt O00187). Description: Biochemical human MASP2 assay (FRET substrate). To be noted: Average IC50; recombinant human MASP2; read-out: human MASP2 IC50. The essentials: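 Mature recombinant human MASP2, expressed in HEK293 and purified by Ni-NTA affinity, was reacted with a DABCYL FRET peptide substrate (added as a 60 μM solution) for 60-120 min at 32 C. Fluorescence increase was read at ex 340/em 490 nm; IC50 was derived from % inhibition versus compound concentration.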

For assay [1], the system named is Human C3-DEPOSITION SERUM. Description: C3 deposition assay, human serum on mannan-coated plates. The class given is biochemical. To be noted: Average IC50, read-out: Human C3-DEPOSITION SERUM IC50. On the procedure:
3. C3 Deposition Assay (Human, Rat, Mouse, Dog, Pig))
The C3 deposition assay was conducted essentially as described (reference). Multiwell plates (Greiner-Nunc 384 Maxi Sorp #464718) were coated over night with Mannan from Saccharomyces cerevisiae (Sigma M7504, 10 μg/mL in 0.05 M carbonate-bicarbonate buffer, pH 9.6) at 4° C. Wells were washed three times with TBS and subsequently incubated for 2 hours with 50 μL of 1% bovine serum albumin (BSA) in Tris-buffered saline (TBS) at 37° C. in order to block non-specific binding. After this step and each of the following incubation steps wells were washed three times with C3 wash buffer (TBS; 0.05% Tween 20; 5 mM CaCl2). […] When appropriately developed the color reaction was stopped by addition of 25 μL of stop solution (Sigma S5814) and quantified on a photometer by measuring absorption at a wavelength of 450 nm. Antibodies were diluted in C3 wash buffer supplemented with 0.5% BSA.

The target in the next assay is human MASP1 (Homo sapiens (Human), UniProt P48740). Description: Biochemical human MASP1 assay (FRET substrate). To be noted: Average IC50; recombinant human MASP1; read-out: human MASP1 IC50. The essentials:
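Recombinant human MASP1 (aa 297-699, C-terminal His tag, HEK293-expressed, Ni-NTA purified) diluted to 20 nM in 50 mM HEPES pH 8,0, 100 mM NaCl, 0,01% CHAPS, 0.5 mM glutathione, preincubated with compound in DMSO; reaction started with 20 μM ABZ/Dnp FRET substrate solution. Fluorescence (ex 320/em 420 nm) after 60-120 min at 32 C; IC50 from % inhibition.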

human MASP1, sequence (P48740 other isoform, or with tags, fused parts or gaps): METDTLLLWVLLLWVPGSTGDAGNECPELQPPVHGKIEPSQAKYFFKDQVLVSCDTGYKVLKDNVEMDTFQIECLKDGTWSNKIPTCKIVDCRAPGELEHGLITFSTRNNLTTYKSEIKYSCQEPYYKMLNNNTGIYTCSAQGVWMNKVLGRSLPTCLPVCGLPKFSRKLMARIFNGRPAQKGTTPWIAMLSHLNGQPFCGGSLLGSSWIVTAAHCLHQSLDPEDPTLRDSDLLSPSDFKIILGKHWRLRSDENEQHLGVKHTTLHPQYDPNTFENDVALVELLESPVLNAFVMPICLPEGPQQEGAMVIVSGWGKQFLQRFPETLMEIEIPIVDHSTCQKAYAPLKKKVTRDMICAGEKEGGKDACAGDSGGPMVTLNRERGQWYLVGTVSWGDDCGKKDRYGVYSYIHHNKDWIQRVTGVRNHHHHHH
human MASP2, sequence (O00187 other isoform, or with tags, fused parts or gaps): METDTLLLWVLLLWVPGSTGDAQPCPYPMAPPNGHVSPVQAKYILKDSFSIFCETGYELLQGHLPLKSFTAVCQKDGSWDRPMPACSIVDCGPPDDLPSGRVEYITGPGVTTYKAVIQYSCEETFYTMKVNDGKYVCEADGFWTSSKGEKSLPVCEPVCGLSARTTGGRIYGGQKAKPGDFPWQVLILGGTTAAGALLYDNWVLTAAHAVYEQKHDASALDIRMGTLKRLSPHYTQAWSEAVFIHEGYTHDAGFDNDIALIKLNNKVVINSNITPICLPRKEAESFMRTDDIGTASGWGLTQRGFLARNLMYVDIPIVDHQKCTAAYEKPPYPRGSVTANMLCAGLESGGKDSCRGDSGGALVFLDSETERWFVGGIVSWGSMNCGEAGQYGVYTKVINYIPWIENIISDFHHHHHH

For `CC[C@H](C)[C@@H]1NC(=O)CNC(=O)[C@H]2CC[C@@H](CC2)CNC(=O)CNC(=O)CC(C(N)=O)NC(=O)[C@@H]2CCCN2C(=O)[C@H]([C@@H](C)CC)NC(=O)[C@H]2NC(=O)[C@H]([C@@H](C)CC)NC(=O)[C@@H]3CCCN3C(=O)[C@@H]3CCCN3C(=O)[C@H](CC(C)(C)C)NC(=O)[C@H](CO)NC(=O)[C@H](CCCNC(=N)N)NC(=O)[C@H](CO)NC(=O)[C@H](CSSC2(C)C)NC1=O` (stereo partly drawn) [Example 62, (1R,4S,10S,21S,24S,30S,33R,36S,39S,42S,45S,51S,57S,60S)-4,30,60-tri[(2S)-butan-2-yl]-39-(3-carbamimidamidopropyl)-45-(2,2-dimethylpropyl)-36,42-bis(hydroxymethyl)-63,63-dimethyl-2,5,11,15,18,25,28,31,34,37,40,43,46,52,58,61-hexadecaoxo-64,65-dithia-3,6,12,16,19,26,29,32,35,38,41,44,47,53,59,62-hexadecaazahexacyclo[31.29.4.2^21,240.0^6,100.0^47,510.0^53,57]octahexacontane-13-carboxamide] (G[Trx]GICSRS[tBuAla]PPI[Pen]IP[ξD]-NH2; disulfide 5-13; lactam N-16), the IC50 at human MASP2 was 540 nM; in assay [1], 149 nM; at human MASP1, 22 nM.

For `CC[C@H](C)[C@@H]1NC(=O)[C@H]2NC(=O)[C@H]([C@@H](C)CC)NC(=O)[C@@H]3CCCN3C(=O)[C@@H]3CCCN3C(=O)[C@H](CC(C)(C)C)NC(=O)[C@H](CO)NC(=O)[C@H](CCCNC(=N)N)NC(=O)[C@H](CO)NC(=O)[C@H](CSSC2(C)C)NC(=O)[C@H]([C@@H](C)CC)NC(=O)[C@@H](N)CCCNC1=O` [Example 66, N-{3-[(5aS,11S,14S,17S,20S,23R,26S,29R,35S,38S,41S,43aS)-29-amino-26,35,41-tri[(2S)-butan-2-yl]-11-(2,2-dimethylpropyl)-14,20-bis(hydroxymethyl)-44,44-dimethyl-5,10,13,16,19,22,25,28,34,37,40,43-dodecaoxodotetracontahydro-5H-23,38-(methanodithiomethano)dipyrrolo[2,1-1:2′,1′-o][1,4,7,10,13,16,19,22,25,28,31,34]dodecaazacyclononatriacontin-17-yl]propyl}guanidine] (H-[Orn]ICSRS[tBuAla]PPI[Pen]I; lactam 1-C; disulfide 3-11), the IC50 at human MASP2 was found to be 22 nM; in assay [1], 25.8 nM; on human MASP1, 8.1 nM.

Turning to `CC[C@H](C)[C@@H]1NC(=O)[C@H]2NC(=O)[C@H]([C@@H](C)CC)NC(=O)[C@@H]3CCCN3C(=O)[C@@H]3CCCN3C(=O)[C@H](CC(C)(C)C)NC(=O)[C@H](CO)NC(=O)[C@H](CCCNC(=N)N)NC(=O)[C@H](CO)NC(=O)[C@H](CSSC2(C)C)NC(=O)[C@H]([C@@H](C)CC)NC(=O)[C@@H](N)CCCCNC1=O` [Example 67, N-{3-[(5aS,11S,14S,17S,20S,23R,26S,29S,36S,39R,42S,44aS)-29-amino-26,36,42-tri[(2S)-butan-2-yl]-11-(2,2-dimethylpropyl)-14,20-bis(hydroxymethyl)-45,45-dimethyl-5,10,13,16,19,22,25,28,35,38,41,44-dodecaoxodotetracontahydro-1H,5H-23,39-(methanodithiomethano)dipyrrolo[2,1-1:2′,1′-o][1,4,7,10,13,16,19,22,25,28,31,34]dodecaazacyclotetracontin-17-yl]propyl}guanidine] (H-KICSRS[tBuAla]PPI[Pen]I; lactam 1-C; disulfide 3-11), the IC50 on human MASP2 came out at 150 nM; in assay [1], 19.1 nM; on human MASP1, 3.25 nM.

Take `CC[C@H](C)[C@@H]1NC(=O)CNC(=O)[C@H]2CC[C@@H](CC2)CNC(=O)CNC(=O)C[C@@H](C(N)=O)NC(=O)[C@@H]2CCCN2C(=O)[C@H]([C@@H](C)CC)NC(=O)[C@@H]2CSSC[C@H](NC1=O)C(=O)N[C@@H](CO)C(=O)N[C@@H](CCCNC(=N)N)C(=O)N[C@@H](CO)C(=O)N[C@@H](CC(C)(C)C)C(=O)N1CCC[C@H]1C(=O)N1CCC[C@H]1C(=O)N[C@@H]([C@@H](C)CC)C(=O)N2C` [Example 69, (1R,4S,10S,13S,21S,24S,30S,33R,36S,39S,42S,45S,51S,57S,60S)-4,30,60-tri[(2S)-butan-2-yl]-39-(3-carbamimidamidopropyl)-45-(2,2-dimethylpropyl)-36,42-bis(hydroxymethyl)-62-methyl-2,5,11,15,18,25,28,31,34,37,40,43,46,52,58,61-hexadecaoxo-64,65-dithia-3,6,12,16,19,26,29,32,35,38,41,44,47,53,59,62-hexadecaazahexacyclo[31.29.4.2^21,240.0^6,100.0^47,510.0^53,57]octahexacontane-13-carboxamide] (G[Trx]GICSRS[tBuAla]PPI[NMeC]IPD-NH2; disulfide 5-13; lactam N-16): the figures for the IC50 (on human MASP2; in assay [1]; at human MASP1) were 190 nM, 364 nM and 20 nM, respectively.

As for `CC[C@H](C)[C@@H]1NC(=O)[C@@H](N)CNC(=O)[C@@H]2CCCN2C(=O)[C@H]([C@@H](C)CC)NC(=O)[C@H]2NC(=O)[C@H]([C@@H](C)CC)NC(=O)[C@@H]3C[C@@H]4CCCC[C@@H]4N3C(=O)[C@@H]3CCCN3C(=O)[C@H](CC(C)C)NC(=O)[C@H](CO)NC(=O)[C@H](CCCNC(=N)N)NC(=O)[C@H](CO)NC(=O)[C@H](CSSC2(C)C)NC1=O` [Example 85] (H-[Dap]ICSRSLP[Oic]I[Pen]IP; lactam 1-C; disulfide 3-11), the IC50 at human MASP2 stood at 1000 nM; in assay [1], 3130 nM; on human MASP1, 1000 nM.

For `CC[C@H](C)[C@@H]1NC(=O)[C@H](CN)NC(=O)[C@@H](N)CNC(=O)[C@@H]2CCCN2C(=O)[C@H]([C@@H](C)CC)NC(=O)[C@H]2NC(=O)[C@H]([C@@H](C)CC)NC(=O)[C@@H]3C[C@@H]4CCCC[C@@H]4N3C(=O)[C@@H]3CCCN3C(=O)[C@H](CC(C)C)NC(=O)[C@H](CO)NC(=O)[C@H](CCCNC(=N)N)NC(=O)[C@H](CO)NC(=O)[C@H](CSSC2(C)C)NC1=O` [Example 86] (H-[Dap][Dap]ICSRSLP[Oic]I[Pen]IP; lactam 1-C; disulfide 4-12), the values for the IC50 (at human MASP2; in assay [1]; on human MASP1) were 1000 nM, 46.3 nM and 27 nM, respectively.

As for `CC[C@H](C)[C@@H]1NC(=O)[C@H](CN)NC(=O)[C@@H]2CCCN2C(=O)[C@H]([C@@H](C)CC)NC(=O)[C@H]2NC(=O)[C@H]([C@@H](C)CC)NC(=O)[C@@H]3C[C@@H]4CCCC[C@@H]4N3C(=O)[C@H]3CCCN3C(=O)[C@H](CC(C)C)NC(=O)[C@H](CO)NC(=O)[C@H](CCCNC(=N)N)NC(=O)[C@H](CO)NC(=O)[C@H](CSSC2(C)C)NC1=O` [Example 87] (cyclo(CSRSL[dP][Oic]I[Pen]IP[Dap]I); disulfide 1-9), the IC50 on human MASP2 worked out at 700 nM; in assay [1], 78.6 nM; on human MASP1 it was 46 nM.

In the case of `CC[C@H](C)[C@@H]1NC(=O)[C@@H]2CCCN2C(=O)[C@H]([C@@H](C)CC)NC(=O)[C@H]2NC(=O)[C@H]([C@@H](C)CC)NC(=O)[C@@H]3CCCN3C(=O)[C@@H]3CCCN3C(=O)[C@H](CC(C)(C)C)NC(=O)[C@H](CO)NC(=O)[C@H](CCCNC(=N)N)NC(=O)[C@H](CO)NC(=O)[C@H](CSSC2(C)C)NC1=O` [Example 88, N-{3-[(6S,9S,12S,15S,18R,21S,23aS,29S,32R,35S,37aS,42aS)-21,29,35-tri[(2S)-butan-2-yl]-6-(2,2-dimethylpropyl)-9,15-bis(hydroxymethyl)-43,43-dimethyl-5,8,11,14,17,20,23,28,31,34,37,42-dodecaoxotetracontahydro-1H,5H-18,32-(methanodithiomethano)tripyrrolo[1,2-a:1′,2′-d:1″,2″-p][1,4,7,10,13,16,19,22,25,28,31,34]-dodecaazacyclohexatriacontin-12-yl]propyl}guanidine hydrogen chloride] (cyclo(CSRS[tBuAla]PPI[Pen]IPI); disulfide 1-9), the figures for the IC50 (on human MASP2; in assay [1]; at human MASP1) were 1000 nM, 50000 nM and 1000 nM, respectively.

`CC[C@H](C)[C@@H]1NC(=O)NC(=O)[C@H](CCCN)NC(=O)[C@@H]2CCCN2C(=O)[C@H]([C@@H](C)CC)NC(=O)[C@H]2NC(=O)[C@H]([C@@H](C)CC)NC(=O)[C@@H]3CCCN3C(=O)[C@@H]3CCCN3C(=O)[C@H](CC(C)(C)C)NC(=O)[C@H](CO)NC(=O)[C@H](CCCNC(=N)NC)NC(=O)[C@H](CO)NC(=O)[C@H](CSSC2(C)C)NC1=O` [Example 96] (cyclo([Arg(Me)]S[tBuAla]PPI[Pen]IP[X5]ICS); disulfide 7-12): the IC50 was found to be 400 nM on human MASP2, 103 nM in assay [1] and 23 nM at human MASP1.

In general, IC50 refers to the concentration that gives 50% inhibition.
